Experimental data from patent publication US10053468B2, “Heterocyclic compound” (TAKEDA PHARMACEUTICAL COMPANY LIMITED, priority 2013, dated 2018).
Read-outs that look alike come from different tables or passages of the source.

Legend:
RORγt [1] = molecular target: T1, RORγt (Homo sapiens, UniProt P51449); assay: Jurkat reporter test (human IL-17 ROR response element luciferase, RORγt vector); format: cell-based; details: read-out: Luminescence level inhibitory rate at test compound 3 μM (%)
T1 sequence (P51449 1-497 isoform P51449-2): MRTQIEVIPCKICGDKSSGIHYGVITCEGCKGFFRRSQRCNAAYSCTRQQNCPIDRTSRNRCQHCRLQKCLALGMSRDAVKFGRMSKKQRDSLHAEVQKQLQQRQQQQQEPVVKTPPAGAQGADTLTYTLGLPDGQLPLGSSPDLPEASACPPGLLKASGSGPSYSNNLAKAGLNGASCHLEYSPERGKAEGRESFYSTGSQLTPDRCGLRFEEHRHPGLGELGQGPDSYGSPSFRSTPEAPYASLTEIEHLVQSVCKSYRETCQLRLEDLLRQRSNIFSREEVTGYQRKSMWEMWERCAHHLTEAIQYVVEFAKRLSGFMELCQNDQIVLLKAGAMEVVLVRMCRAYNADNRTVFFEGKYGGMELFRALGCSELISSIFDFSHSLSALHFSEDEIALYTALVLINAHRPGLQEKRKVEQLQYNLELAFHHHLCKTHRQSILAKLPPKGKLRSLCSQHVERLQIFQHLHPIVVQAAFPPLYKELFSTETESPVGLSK
In short: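 Jurkat cells were electroporated (1350 V, 10 ms, 3 pulses) with reporter constructs, then cultured overnight with compound in RPMI containing 10% lipid-reduced FCS, 10 mM HEPES pH 7.5 and 5 μM lovastatin. Luciferase was quantified by Bright-Glo luminescence after 10 min at room temperature.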

RORγt [2] = molecular target: T1, RORγt; assay: RORγt binding test using fluorescent-labeled synthetic ligand (TR-FRET); details: read-out: Binding inhibitory rate of fluorescent-labeled synthetic ligand to RORγt at test compound 1 μM (%)
Description: RORγt Binding Test Using Fluorescent-labeled Synthetic Ligand
The binding activity of the test compound to RORγt was measured by a time resolved fluorescence resonance energy transfer method (TR-FRET) utilizing histidine-tagged RORγt, fluorescent-labeled synthetic ligand, and terbium-labeled anti-histidine tag antibody (Invitrogen). First, a test compound diluted with an assay buffer (20 mM Tris-HCl (pH 7.5), 100 mM NaCl, 1 mM DTT, 0.1% BSA) was added to a 384 well plate by 3 μL. Then, RORγt diluted with an assay buffer to 240 nM was added by 3 μL, after which fluorescent-labeled synthetic ligand diluted with the assay buffer to 12 μM was added by 3 μL, and the mixture was stood at room temperature for 20 min. Thereafter, a terbium-labeled anti-histidine tag antibody diluted with the assay buffer to 8 nM was added by 3 μL. The mixture was stood at room temperature for 20 min, and fluorescence intensity (excitation wavelength 320 nm, fluorescence wavelength 520 nm, delay time 100 microseconds) was measured by Envision (PerkinElmer).

RORγt [3] = molecular target: T1, RORγt; assay: Cofactor recruitment test (Alpha Screen, biotinylated SRC-1 peptide); format: biochemical; details: read-out: Signal value inhibitory rate at test compound 1 μM (%)
Description: Cofactor Recruitment Test
Cofactor recruitment test was performed by Alpha Screen (Histidine Detection Kit, PerkinElmer) method. First, a test compound was diluted with an assay buffer (50 mM Tris-HCl (pH 7.5), 50 mM KCl, 1 mM DTT, 0.1% BSA) and added to a 384 well plate by 5 μL. […] The mixture was stood in a dark place for 1 hr, and the signal value was measured by Envision (PerkinElmer).

RORγt [4] = molecular target: T1, RORγt; assay: RORγt binding test using fluorescent-labeled cholesterol (TR-FRET); details: read-out: Binding inhibitory rate of fluorescent-labeled cholesterol to RORγt at test compound 1 μM (%)
In short: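 TR-FRET displacement with His-tagged RORγt, BODIPY-cholesterol and Tb-anti-His antibody in Tris-HCl pH 7.5, 100 mM NaCl, 1 mM DTT, 0.1% BSA. Compound, RORγt and labelled cholesterol were incubated 20 min at RT, then antibody was added for another 20 min.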

[5] = test compound 3 μM, Jurkat cells

SMILES	inhibition at 3 µM (RORγt [1]; [5]) [%]	inhibition at 1 µM (RORγt [2]) [%]	inhibition at 1 µM (RORγt [3]) [%]	inhibition at 1 µM (RORγt [4]) [%]	inhibition at 3 µM (RORγt [1]; Jurkat) [%]
COc1ccc2c(c1)CCN(C(=O)Cc1cc(O)no1)[C@H]2C(=O)Nc1ccc([Si](C)(C)C)c(C#N)c1 [Example 72, (1R)-N-(3-cyano-4-(trimethylsilyl)phenyl)-2-((3-hydroxy-1,2-oxazol-5-yl)acetyl)-6-methoxy-1,2,3,4-tetrahydroisoquinoline-1-carboxamide]		102	94	104	100
COc1ccc2c(c1)CCN(C(=O)Cc1cc(O)no1)[C@H]2C(=O)Nc1ccc([Si](C)(C)C)c(F)c1 [Example 73, (1R)-N-(3-fluoro-4-(trimethylsilyl)phenyl)-2-((3-hydroxy-1,2-oxazol-5-yl)acetyl)-6-methoxy-1,2,3,4-tetrahydroisoquinoline-1-carboxamide]		102	90	102	100
COc1ccc2c(n1)CCN(C(=O)c1cc(O)no1)[C@H]2C(=O)Nc1ccc([Si](C)(C)C)c(F)c1 [Example 79, (5R)-N-(3-fluoro-4-(trimethylsilyl)phenyl)-6-((3-hydroxy-1,2-oxazol-5-yl)carbonyl)-2-methoxy-5,6,7,8-tetrahydro-1,6-naphthyridine-5-carboxamide]		102	97	102	102
COc1ccc2c(n1)CCN(C(=O)Cc1cc(O)no1)[C@H]2C(=O)Nc1ccc([Si](C)(C)C)c(F)c1 [Example 80, (5R)-N-(3-fluoro-4-(trimethylsilyl)phenyl)-6-((3-hydroxy-1,2-oxazol-5-yl)acetyl)-2-methoxy-5,6,7,8-tetrahydro-1,6-naphthyridine-5-carboxamide]		102	97	102	100
CC[Si](C)(C)c1c(F)cc(NC(=O)[C@H]2c3ccc(OC)cc3CCN2C(=O)CCCC(=O)O)cc1F [Example 86, 5-((1R)-1-((4-(ethyl(dimethyl)silyl)-3,5-difluorophenyl)carbamoyl)-6-methoxy-3,4-dihydroisoquinolin-2(1H)-yl)-5-oxopentanoic acid]		102	98	103	101
COCc1ccc2c(c1)CCN(C(=O)Cc1cc(O)no1)[C@H]2C(=O)Nc1ccc([Si](C)(C)C)c(F)c1 [Example 101, (1R)-N-(3-fluoro-4-(trimethylsilyl)phenyl)-2-((3-hydroxy-1,2-oxazol-5-yl)acetyl)-6-(methoxymethyl)-1,2,3,4-tetrahydroisoquinoline-1-carboxamide]		102	99	102	103
COc1ccc2c(c1)CCN(C(=O)CC(F)(F)F)[C@H]2C(=O)Nc1cc(F)c(C(C)(C)C(=O)N2CCCC2)c(F)c1 [Example 104, (1R)-N-(3,5-difluoro-4-(2-methyl-1-oxo-1-(pyrrolidin-1-yl)propan-2-yl)phenyl)-6-methoxy-2-(3,3,3-trifluoropropanoyl)-1,2,3,4-tetrahydroisoquinoline-1-carboxamide]	102	101	101	102	

Now from value to compound, other results behind:

inhibition at 3 µM (RORγt [1]; [5]) [%]	inhibition at 1 µM (RORγt [2]) [%]	inhibition at 1 µM (RORγt [3]) [%]	inhibition at 1 µM (RORγt [4]) [%]	SMILES	inhibition at 3 µM (RORγt [1]; Jurkat) [%]
99.5	102	82	102	CCOc1ccc2c(c1)CCN(C(=O)Cc1cc(O)no1)[C@H]2C(=O)Nc1cc(F)c2c(c1)CCC2(C)C [Example 66, (1R)-6-ethoxy-N-(7-fluoro-1,1-dimethyl-2,3-dihydro-1H-inden-5-yl)-2-((3-hydroxy-1,2-oxazol-5-yl)acetyl)-1,2,3,4-tetrahydroisoquinoline-1-carboxamide]	
100	102	87	103	CCOc1ccc2c(c1)CCN(C(=O)Cc1cc(O)no1)[C@H]2C(=O)Nc1ccc(C(C)(C)C)c(F)c1 [Example 67, (1R)-N-(4-tert-butyl-3-fluorophenyl)-6-ethoxy-2-((3-hydroxy-1,2-oxazol-5-yl)acetyl)-1,2,3,4-tetrahydroisoquinoline-1-carboxamide]	
100	101	83	102	COCC(C)(C)c1ccc(NC(=O)[C@H]2c3ccc(OC)cc3CCN2C(=O)c2cc(O)no2)cc1F [Example 69, (1R)-N-(3-fluoro-4-(1-methoxy-2-methylpropan-2-yl)phenyl)-2-((3-hydroxy-1,2-oxazol-5-yl)carbonyl)-6-methoxy-1,2,3,4-tetrahydroisoquinoline-1-carboxamide]	
99	102	82	102	COCC(C)(C)c1ccc(NC(=O)[C@H]2c3ccc(OC)cc3CCN2C(=O)Cc2cc(O)no2)cc1F [Example 70, (1R)-N-(3-fluoro-4-(1-methoxy-2-methylpropan-2-yl)phenyl)-2-((3-hydroxy-1,2-oxazol-5-yl)acetyl)-6-methoxy-1,2,3,4-tetrahydroisoquinoline-1-carboxamide]	
96	102	78	101	COc1ccc2c(c1)CCN(C(=O)c1cc(O)no1)[C@H]2C(=O)Nc1ccc(C(C)(C)COCC(F)F)c(F)c1 [Example 75, (1R)-N-(4-(1-(2,2-difluoroethoxy)-2-methylpropan-2-yl)-3-fluorophenyl)-2-((3-hydroxy-1,2-oxazol-5-yl)carbonyl)-6-methoxy-1,2,3,4-tetrahydroisoquinoline-1-carboxamide]	
101	102	89	101	COc1ccc2c(n1)CCN(C(=O)Cc1cc(O)no1)[C@H]2C(=O)Nc1ccc(C(C)(C)C)c(F)c1 [Example 78, (5R)-N-(4-tert-butyl-3-fluorophenyl)-6-((3-hydroxy-1,2-oxazol-5-yl)acetyl)-2-methoxy-5,6,7,8-tetrahydro-1,6-naphthyridine-5-carboxamide]	
102	101	96	102	COCC(C)(C)c1c(F)cc(NC(=O)[C@H]2c3ccc(OC)cc3CCN2C(=O)c2cc(O)no2)cc1F [Example 97, (1R)-N-(3,5-difluoro-4-(1-methoxy-2-methylpropan-2-yl)phenyl)-2-((3-hydroxy-1,2-oxazol-5-yl)carbonyl)-6-methoxy-1,2,3,4-tetrahydroisoquinoline-1-carboxamide]	
102	102	96	99	COCC(C)(C)c1c(F)cc(NC(=O)[C@H]2c3ccc(OC)cc3CCN2C(=O)Cc2cc(O)no2)cc1F [Example 98, (1R)-N-(3,5-difluoro-4-(1-methoxy-2-methylpropan-2-yl)phenyl)-2-((3-hydroxy-1,2-oxazol-5-yl)acetyl)-6-methoxy-1,2,3,4-tetrahydroisoquinoline-1-carboxamide]	
102	101	101	104	COc1ccc2c(c1)CCN(C(=O)CC#N)[C@H]2C(=O)Nc1cc(F)c(C(C)(C)C(=O)N2CCCC2)c(F)c1 [Example 103, (1R)-2-(cyanoacetyl)-N-(3,5-difluoro-4-(2-methyl-1-oxo-1-(pyrrolidin-1-yl)propan-2-yl)phenyl)-6-methoxy-1,2,3,4-tetrahydroisoquinoline-1-carboxamide]	
